Source: the NIST ThermoML archive (doi:10.1021/je8002964)
± gives the expanded uncertainty stated by the source.

Conditions: 298.15 K; 101.33 kPa; Liquid

Row | SMILES | mass density [kg/m3]
1 | OCC(F)(F)F [2,2,2-trifluoroethanol] | 1382.4 ± 1.2
2 | C1CCCCC1 [cyclohexane] | 774 ± 0.3
3 | CCCCCCC [heptane] | 680 ± 0.7

Now from value to molecule:

Row | mass density [kg/m3] | SMILES
4 | 787 ± 0.4 | CO [methanol]
5 | 781.4 ± 0.5 | CC(C)O [propan-2-ol]
